In this test the test system is MV-4-11 cells. The test is described as follows: Gene expression microarray analysis (Affymetrix PrimeView) and GSEA. It counts as cell-based, human. Further details: RFU PODN (11730768_x_at) / Fold change /veh PODN (11730768_x_at) / RFU LINC00158 (11744669_a_at) / Fold change /veh LINC00158 (11744669_a_at) / RFU DUSP10 (11751237_a_at) / Fold change /veh DUSP10 (11751237_a_at) / RFU ID3 (11757404_x_at) / Fold change /veh ID3 (11757404_x_at) / RFU PLEKHG5 (11737974_s_at) / Fold change /veh PLEKHG5 (11737974_s_at) / RFU LRRC4B (11730491_at) / Fold change /veh LRRC4B (11730491_at) / RFU GIMAP4 (11747438_a_at) / Fold change /veh GIMAP4 (11747438_a_at) / RFU KRT8 (11758183_x_at) / Fold change /veh KRT8 (11758183_x_at) / RFU CNN1 (11734310_a_at) / Fold change /veh CNN1 (11734310_a_at) / RFU VPS37D (11726825_at) / Fold change /veh VPS37D (11726825_at) / RFU C10orf10 (11716522_x_at) / Fold change /veh C10orf10 (11716522_x_at) / RFU KIR2DL2 /// KIR2DL4 /// KIR2DL5A /// KIR2DL5B /// KIR2DS1 /// KIR2DS2 /// KIR2DS3 /// KIR2DS4 /// KIR3DL3 /// KIR3DL3 /// KIR3DS1 (11738374_at) / Fold change /veh KIR2DL2 /// KIR2DL4 /// KIR2DL5A /// KIR2DL5B /// KIR2DS1 /// KIR2DS2 /// KIR2DS3 /// KIR2DS4 /// KIR3DL3 /// KIR3DL3 /// KIR3DS1 (11738374_at) / RFU C1QL1 (11718748_at) / Fold change /veh C1QL1 (11718748_at) / RFU TMPRSS4 (11747572_a_at) / Fold change /veh TMPRSS4 (11747572_a_at) / RFU HAMP (11756126_x_at) / Fold change /veh HAMP (11756126_x_at) / RFU RNFT2 (11725882_a_at) / Fold change /veh RNFT2 (11725882_a_at) / RFU NR4A2 (11747474_a_at) / Fold change /veh NR4A2 (11747474_a_at) / RFU ABCC12 (11746883_a_at) / Fold change /veh ABCC12 (11746883_a_at) / RFU TMEM136 (11760407_x_at) / Fold change /veh TMEM136 (11760407_x_at) / RFU CLDN22 /// WWC2 (11732394_at) / Fold change /veh CLDN22 /// WWC2 (11732394_at) / RFU HLA-DPB1 (11760878_x_at) / Fold change /veh HLA-DPB1 (11760878_x_at) / RFU SPINT1 (11716480_a_at) / Fold change /veh SPINT1 (11716480_a_at) / RFU GAP43 (11754022_s_at) / Fold change /veh GAP43 (11754022_s_at) / RFU A4GNT (11735810_at) / Fold change /veh A4GNT (11735810_at) / RFU PRB3 (11715151_x_at) / Fold change /veh PRB3 (11715151_x_at) / RFU TUBB4B (11761932_at) / Fold change /veh TUBB4B (11761932_at) / RFU CAPN14 (11732068_a_at) / Fold change /veh CAPN14 (11732068_a_at) / RFU TMCC2 (11721928_a_at) / Fold change /veh TMCC2 (11721928_a_at) / RFU IRGQ (11745062_a_at) / Fold change /veh IRGQ (11745062_a_at) / RFU FAM174B (11720279_a_at) / Fold change /veh FAM174B (11720279_a_at) / RFU TMPRSS4 (11748680_a_at) / Fold change /veh TMPRSS4 (11748680_a_at) / RFU FAM212B (11763350_a_at) / Fold change /veh FAM212B (11763350_a_at) / RFU PLEKHG5 (11743358_a_at) / Fold change /veh PLEKHG5 (11743358_a_at) / RFU ZSCAN30 (11745921_a_at) / Fold change /veh ZSCAN30 (11745921_a_at) / RFU CMKLR1 (11741424_a_at) / Fold change /veh CMKLR1 (11741424_a_at) / RFU LOC101060620 /// MAPK8IP1 (11723275_at) / Fold change /veh LOC101060620 /// MAPK8IP1 (11723275_at) / RFU SPTSSB (11747773_x_at) / Fold change /veh SPTSSB (11747773_x_at) / RFU PRSS12 (11739890_at) / Fold change /veh PRSS12 (11739890_at) / RFU BIN1 (11741810_x_at) / Fold change /veh BIN1 (11741810_x_at) / RFU WNT11 (11732464_a_at) / Fold change /veh WNT11 (11732464_a_at) / RFU C10orf10 (11716521_a_at) / Fold change /veh C10orf10 (11716521_a_at) / RFU C5orf56 (11738089_at) / Fold change /veh C5orf56 (11738089_at) / RFU CYB561 (11721691_x_at) / Fold change /veh CYB561 (11721691_x_at) / RFU ANKRD19P (11752326_a_at) / Fold change /veh ANKRD19P (11752326_a_at) / RFU OR2T12 /// OR2T33 /// OR2T8 (11738714_s_at) / Fold change /veh OR2T12 /// OR2T33 /// OR2T8 (11738714_s_at) / RFU VCAN (11748164_a_at) / Fold change /veh VCAN (11748164_a_at) / RFU JSRP1 (11732532_at) / Fold change /veh JSRP1 (11732532_at) / RFU KRTAP10-11 (11738290_x_at) / Fold change /veh KRTAP10-11 (11738290_x_at) / RFU MYO3A (11730013_a_at) / Fold change /veh MYO3A (11730013_a_at) / RFU EBF3 (11725865_a_at) / Fold change /veh EBF3 (11725865_a_at) / RFU CAMK2N1 (11719241_x_at) / Fold change /veh CAMK2N1 (11719241_x_at) / RFU C5orf56 (11738088_a_at) / Fold change /veh C5orf56 (11738088_a_at) / RFU OLFML3 (11715873_a_at) / Fold change /veh OLFML3 (11715873_a_at) / RFU LOC100653217 /// NTM (11731650_a_at) / Fold change /veh LOC100653217 /// NTM (11731650_a_at) / RFU MAPK11 (11762145_a_at) / Fold change /veh MAPK11 (11762145_a_at) / RFU FIZ1 (11724087_x_at) / Fold change /veh FIZ1 (11724087_x_at) / RFU OASL (11726364_x_at) / Fold change /veh OASL (11726364_x_at) / RFU SOX15 (11748057_x_at) / Fold change /veh SOX15 (11748057_x_at) / RFU CD79A (11719716_a_at) / Fold change /veh CD79A (11719716_a_at) / RFU HIST1H1D (11736915_at) / Fold change /veh HIST1H1D (11736915_at) / RFU CASKIN2 (11723855_a_at) / Fold change /veh CASKIN2 (11723855_a_at) / RFU LOC730098 (11760151_x_at) / Fold change /veh LOC730098 (11760151_x_at) / RFU OR4N2 (11742367_at) / Fold change /veh OR4N2 (11742367_at) / RFU PRRT2 (11749266_a_at) / Fold change /veh PRRT2 (11749266_a_at) / RFU SNX32 (11753110_a_at) / Fold change /veh SNX32 (11753110_a_at) / RFU CDHR5 (11726645_a_at) / Fold change /veh CDHR5 (11726645_a_at) / RFU RCAN1 (11760418_a_at) / Fold change /veh RCAN1 (11760418_a_at) / RFU FAM167A (11723789_a_at) / Fold change /veh FAM167A (11723789_a_at) / RFU FAM26E (11764081_at) / Fold change /veh FAM26E (11764081_at) / RFU ISYNA1 (11749810_s_at) / Fold change /veh ISYNA1 (11749810_s_at) / RFU ACY1 (11761880_at) / Fold change /veh ACY1 (11761880_at) / RFU 11764098_at / Fold change /veh 11764098_at / RFU SAMD14 (11745864_x_at) / Fold change /veh SAMD14 (11745864_x_at) / RFU NPB (11741838_a_at) / Fold change /veh NPB (11741838_a_at) / RFU TMPRSS6 (11731388_a_at) / Fold change /veh TMPRSS6 (11731388_a_at) / RFU KRTAP10-2 (11738614_at) / Fold change /veh KRTAP10-2 (11738614_at) / RFU ARHGAP8 /// PRR5-ARHGAP8 (11727945_x_at) / Fold change /veh ARHGAP8 /// PRR5-ARHGAP8 (11727945_x_at) / RFU KRTAP5-7 /// NADSYN1 (11734609_at) / Fold change /veh KRTAP5-7 /// NADSYN1 (11734609_at) / RFU RASL12 (11751679_a_at) / Fold change /veh RASL12 (11751679_a_at) / RFU CDKN2B (11736163_a_at) / Fold change /veh CDKN2B (11736163_a_at) / RFU PRF1 (11729649_at) / Fold change /veh PRF1 (11729649_at) / RFU, ZNF638 /// ZNF638-IT1 / Fold change vs veh, ZNF638 /// ZNF638-IT1 / RFU, PANK3 / Fold change vs veh, PANK3 / RFU, SH3YL1 / Fold change vs veh, SH3YL1 / RFU, ZEB2 / Fold change vs veh, ZEB2 / RFU, NRIP1 / Fold change vs veh, NRIP1 / RFU, PTTG1IP / Fold change vs veh, PTTG1IP / RFU, CAPN2 / Fold change vs veh, CAPN2 / RFU, MED14 / Fold change vs veh, MED14 / RFU, SNORA58 / Fold change vs veh, SNORA58 / RFU, C1orf63 / Fold change vs veh, C1orf63 / RFU, LRRFIP1 / Fold change vs veh, LRRFIP1 / RFU, NDUFAF7 / Fold change vs veh, NDUFAF7 / RFU, SLC12A2 / Fold change vs veh, SLC12A2 / RFU, IBTK / Fold change vs veh, IBTK / RFU, ESF1 / Fold change vs veh, ESF1 / Fold change vs veh, TMEM50B / RFU, TAOK1 / Fold change vs veh, TAOK1 / RFU, ACBD3 / Fold change vs veh, ACBD3 / RFU, TMA16 / Fold change vs veh, TMA16 / RFU, RWDD3 / Fold change vs veh, RWDD3 / RFU, BCAT1 / Fold change vs veh, BCAT1 / RFU, EDEM3 / Fold change vs veh, EDEM3 / RFU, TMEM33 / Fold change vs veh, TMEM33 / RFU, WDR75 / Fold change vs veh, WDR75 / RFU, AHCTF1 / Fold change vs veh, AHCTF1 / RFU, TFRC / Fold change vs veh, TFRC / RFU, ZDHHC17 / Fold change vs veh, ZDHHC17 / RFU, NOM1 / Fold change vs veh, NOM1 / RFU, ARL8B / Fold change vs veh, ARL8B / RFU, ZBTB11 / Fold change vs veh, ZBTB11 / RFU, TAMM41 / Fold change vs veh, TAMM41 / RFU, KIAA1704 /// LOC100996395 / Fold change vs veh, KIAA1704 /// LOC100996395 / RFU, ING1 / Fold change vs veh, ING1 / RFU, TRMT61B / Fold change vs veh, TRMT61B / RFU, FUBP3 / Fold change vs veh, FUBP3 / RFU, TP53 / Fold change vs veh, TP53 / RFU, TNKS2 / Fold change vs veh, TNKS2 / RFU, ZFP14 / Fold change vs veh, ZFP14 / RFU, ACTR2 / Fold change vs veh, ACTR2 / RFU, PPP3R1 / Fold change vs veh, PPP3R1 / RFU, PIK3R1 / Fold change vs veh, PIK3R1 / RFU, HNRNPA1 / Fold change vs veh, HNRNPA1 / RFU, RNF170 / Fold change vs veh, RNF170 / RFU, ZNF28 / Fold change vs veh, ZNF28 / RFU, RNGTT / Fold change vs veh, RNGTT / RFU, OGT / Fold change vs veh, OGT / RFU, BRD1 / Fold change vs veh, BRD1 / RFU, MARS / Fold change vs veh, MARS / RFU, ZNF655 / Fold change vs veh, ZNF655 / RFU, FAHD1 / Fold change vs veh, FAHD1 / RFU, BDP1 / Fold change vs veh, BDP1 / RFU, LRRCC1 / Fold change vs veh, LRRCC1 / RFU, ARID1A / Fold change vs veh, ARID1A / RFU, ZNF146 / Fold change vs veh, ZNF146 / RFU, ZNF330 / Fold change vs veh, ZNF330 / RFU, GPN3 / Fold change vs veh, GPN3 / RFU, C9orf123 / Fold change vs veh, C9orf123 / RFU, N4BP2L2 / Fold change vs veh, N4BP2L2 / RFU, ARFIP1 / Fold change vs veh, ARFIP1 / RFU, FAM179B / Fold change vs veh, FAM179B / RFU, BCL10 / Fold change vs veh, BCL10 / RFU, UHRF1BP1L / Fold change vs veh, UHRF1BP1L / RFU, BET1 / Fold change vs veh, BET1 / RFU, CNOT2 / Fold change vs veh, CNOT2 / RFU, ZNF268 / Fold change vs veh, ZNF268 / Fold change vs veh, ZNF507 / RFU, DGCR2 / Fold change vs veh, DGCR2 / RFU, WDSUB1 / Fold change vs veh, WDSUB1 / Fold change vs veh, HSP90B1 /// MIR3652 / RFU, ADSS / Fold change vs veh, ADSS / RFU, GK / Fold change vs veh, GK / RFU, ZNF148 / Fold change vs veh, ZNF148 / RFU, TAF9 / Fold change vs veh, TAF9 / RFU, SLC1A5 / Fold change vs veh, SLC1A5 / RFU, SLMO2 / Fold change vs veh, SLMO2 / RFU, ABCC4 / Fold change vs veh, ABCC4 / RFU, LOC101060439 /// RAP1B / Fold change vs veh, LOC101060439 /// RAP1B / RFU, RFX7 / Fold change vs veh, RFX7 / RFU, GTPBP10 / Fold change vs veh, GTPBP10 / RFU, CNEP1R1 / Fold change vs veh, CNEP1R1 / RFU, BIVM-ERCC5 /// ERCC5 / Fold change vs veh, BIVM-ERCC5 /// ERCC5 / RFU, ILF3 / Fold change vs veh, ILF3 / RFU 11762660_at / Fold change /veh 11762660_at / RFU VCAN (11757783_s_at) / Fold change /veh VCAN (11757783_s_at) / RFU DDX43 (11728927_at) / Fold change /veh DDX43 (11728927_at) / RFU KRT8 (11758188_x_at) / Fold change /veh KRT8 (11758188_x_at) / RFU NKD1 (11759106_at) / Fold change /veh NKD1 (11759106_at) / RFU SRD5A1 (11742802_a_at) / Fold change /veh SRD5A1 (11742802_a_at) / RFU TPSAB1 /// TPSB2 (11721975_s_at) / Fold change /veh TPSAB1 /// TPSB2 (11721975_s_at) / RFU GSTM3 (11746129_a_at) / Fold change /veh GSTM3 (11746129_a_at) / RFU IL23R (11737362_x_at) / Fold change /veh IL23R (11737362_x_at) / RFU TMEM51 (11727254_a_at) / Fold change /veh TMEM51 (11727254_a_at) / RFU PIWIL2 (11732686_x_at) / Fold change /veh PIWIL2 (11732686_x_at) / RFU ORM1 (11744905_x_at) / Fold change /veh ORM1 (11744905_x_at) / RFU CCDC152 (11743942_at) / Fold change /veh CCDC152 (11743942_at) / RFU ECM1 (11717891_a_at) / Fold change /veh ECM1 (11717891_a_at) / RFU IL23R (11748794_a_at) / Fold change /veh IL23R (11748794_a_at) / RFU TNFAIP8L3 (11732012_x_at) / Fold change /veh TNFAIP8L3 (11732012_x_at) / RFU MBOAT4 (11741988_at) / Fold change /veh MBOAT4 (11741988_at) / RFU 11764193_at / Fold change /veh 11764193_at / RFU TMEM53 (11763286_at) / Fold change /veh TMEM53 (11763286_at) / RFU MAGEB2 (11727129_at) / Fold change /veh MAGEB2 (11727129_at) / RFU TMEM200A (11744735_a_at) / Fold change /veh TMEM200A (11744735_a_at) / RFU CCDC152 (11751479_a_at) / Fold change /veh CCDC152 (11751479_a_at) / RFU FAM211A (11726209_a_at) / Fold change /veh FAM211A (11726209_a_at) / RFU RGS16 (11746705_a_at) / Fold change /veh RGS16 (11746705_a_at) / RFU VCAN (11755009_s_at) / Fold change /veh VCAN (11755009_s_at) / RFU RHOB (11743442_s_at) / Fold change /veh RHOB (11743442_s_at) / RFU RGS16 (11720943_a_at) / Fold change /veh RGS16 (11720943_a_at) / RFU RGS16 (11720944_at) / Fold change /veh RGS16 (11720944_at) / RFU, VPS4B / Fold change vs veh, VPS4B / RFU, CREB1 / Fold change vs veh, CREB1 / RFU, DNAJC13 / Fold change vs veh, DNAJC13 / RFU, GNAQ / Fold change vs veh, GNAQ / RFU, CDK5R1 / Fold change vs veh, CDK5R1 / RFU, ZRANB3 / Fold change vs veh, ZRANB3 / RFU, CUL4A / Fold change vs veh, CUL4A / RFU, CCNY / Fold change vs veh, CCNY / RFU, UFL1 / Fold change vs veh, UFL1 / RFU, COG3 / Fold change vs veh, COG3 / RFU, DIAPH2 / Fold change vs veh, DIAPH2 / RFU, SKA2 / Fold change vs veh, SKA2 / RFU, AFF3 / Fold change vs veh, AFF3 / RFU, LMF1 / Fold change vs veh, LMF1 / RFU, IPO11 / Fold change vs veh, IPO11 / RFU, DFFB / Fold change vs veh, DFFB / RFU, FOXP1 / Fold change vs veh, FOXP1 / RFU, CARD8 / Fold change vs veh, CARD8 / RFU, STRN3 / Fold change vs veh, STRN3 / RFU, ADK / Fold change vs veh, ADK / RFU, RASSF2 / Fold change vs veh, RASSF2 / RFU, WIPF1 / Fold change vs veh, WIPF1 / RFU, LARP1B / Fold change vs veh, LARP1B / RFU, RASA1 / Fold change vs veh, RASA1 / RFU, RB1 / Fold change vs veh, RB1 / RFU, PPFIA1 / Fold change vs veh, PPFIA1 / RFU, MAT2A / Fold change vs veh, MAT2A / RFU, CCT5 / Fold change vs veh, CCT5 / RFU, WDR92 / Fold change vs veh, WDR92 / RFU, CUX1 / Fold change vs veh, CUX1 / RFU, TTC7A / Fold change vs veh, TTC7A / RFU, TMEM135 / Fold change vs veh, TMEM135 / RFU, DEPTOR / Fold change vs veh, DEPTOR / RFU, CPM / Fold change vs veh, CPM / RFU, DNAJB6 / Fold change vs veh, DNAJB6 / RFU, CACNA2D3 / Fold change vs veh, CACNA2D3 / RFU, DTX4 / Fold change vs veh, DTX4 / RFU, TFCP2 / Fold change vs veh, TFCP2 / RFU, GMCL1 /// GMCL1P1 / Fold change vs veh, GMCL1 /// GMCL1P1 / RFU, AEBP2 / Fold change vs veh, AEBP2 / RFU, SNHG1 /// SNORD22 /// SNORD25 /// SNORD26 /// SNORD27 /// SNORD28 /// SNORD29 /// SNORD31 / Fold change vs veh, SNHG1 /// SNORD22 /// SNORD25 /// SNORD26 /// SNORD27 /// SNORD28 /// SNORD29 /// SNORD31 / Fold change (Aza/veh), C12orf56 (ProbeSet 11735607_a_at) / Fold change (ACY-1035/veh), C12orf56 (ProbeSet 11735607_a_at) / Fold change (Aza/veh), FGFR1OP (ProbeSet 11751329_s_at) / Fold change (ACY-1035/veh), FGFR1OP (ProbeSet 11751329_s_at) / Fold change (Aza/veh), VPS36 (ProbeSet 11739960_a_at) / Fold change (ACY-1035/veh), VPS36 (ProbeSet 11739960_a_at) / RFU SYPL1 (11715823_x_at) / Fold change /veh SYPL1 (11715823_x_at) / RFU IGFBP7 (11715501_s_at) / Fold change /veh IGFBP7 (11715501_s_at) / RFU REEP3 (11722064_at) / Fold change /veh REEP3 (11722064_at) / RFU IGLL1 (11728026_x_at) / Fold change /veh IGLL1 (11728026_x_at): dose or concentration left out as unconfirmed. As to conditions: ProbeSet 11716844_s_at; LIST D.

With `Nc1ncn([C@@H]2O[C@H](CO)[C@@H](O)[C@H]2O)c(=O)n1` [azacitidine], the “Fold change vs veh, DNAJC13” value was determined as 0.78.

Values taken from publication PMC5218480 (PLoS ONE, 2017).
